For five molecules, EC50 and Emax results are on record in patent US12281149B2, “Modulators of G-protein coupled receptors” (priority 2021, dated 2025).

The structures appear in SMILES notation. Where two headings read alike, the source gives them in different places. *1 amine or outer side, *2 acyl side, *3 side chain or, on linkers, in order; H or OH if unused. Where a SMILES comes first, the peptide text is derived from it. Side-chain parts run from the residue outwards. [ ]: non-standard residue; d: D form. The star is where a group is joined. Isobutyryl(2-(3-CN-5-F-Ph)) = CC(C)(C(=O)*)c1cc(F)cc(C#N)c1; C20 diacid = O=C(O)CCCCCCCCCCCCCCCCCCC(=O)*; αMePhe(2-F) = C[C@](N)(Cc1ccccc1F)C(=O)O; γGlu = O=C(O)[C@H](CCC(=O)[*:2])N[*:1]; X60 = O=C(C1(c2cccnc2)CCCC1)*; X16 = FC(F)(F)c1cccc(N*)c1; X6 = CC(C)(C(=O)*)c1ccccc1; AEEA = NCCOCCOCC(=O)O; Aib = CC(C)(N)C(=O)O; CO = O=C([*:1])[*:2]; X63 = Fc1ccc(N*)cc1F; GABA = NCCCC(=O)O; βAla = NCCC(=O)O Some results are limits rather than exact numbers.

Holding throughout (format): cell-based
Assay [1] has as its target T1, GIP receptor (Homo sapiens, UniProt P48546).
T1 sequence (P48546 22-466): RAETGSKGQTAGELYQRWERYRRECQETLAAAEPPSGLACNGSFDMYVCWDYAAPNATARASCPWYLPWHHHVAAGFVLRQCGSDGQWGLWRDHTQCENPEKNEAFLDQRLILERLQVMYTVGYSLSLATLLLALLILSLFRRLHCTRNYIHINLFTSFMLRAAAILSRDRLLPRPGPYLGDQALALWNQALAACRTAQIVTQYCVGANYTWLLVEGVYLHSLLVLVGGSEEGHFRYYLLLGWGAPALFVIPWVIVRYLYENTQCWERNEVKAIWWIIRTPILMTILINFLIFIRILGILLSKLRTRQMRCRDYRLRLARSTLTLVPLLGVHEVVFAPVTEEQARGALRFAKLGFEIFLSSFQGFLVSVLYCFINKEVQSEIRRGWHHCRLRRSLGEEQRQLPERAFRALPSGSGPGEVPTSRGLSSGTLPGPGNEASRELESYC
The experiment in a line: HitHunter cAMP assay, GIP receptor. Conditions: for Emax: read-out: Emax GIP-1R. (In general: Cyclic AMP is a second messenger, typically raised through Gs and lowered through Gi signalling.)
Method: CAMP accumulation was measured in Chinese hamster ovary (CHO) cells stably expressing the human GLP-1 receptor or GIP receptor using the HitHunter CAMP Assay for Small Molecules Kit (Eurofins). Briefly, cells were grown in Ham's F12 Nutrient Mix with 10% FBS and lifted with Cell dissociation buffer, Enzyme free, PBS based (ThermoFisher). Cells were pelleted and resuspended in Hank's buffered saline solution with 10 mM Hepes and 625 μM 3-isobutyl-1-methylxanthine. The antibody reagent was then added to cells at a 1:2 ratio and 5 μL of mixture was seeded in 384-well small volume white assay plates, at 10,000 cells/well. Cells were then treated with 50 nl compound in DMSO using an ECHO 550 acoustic dispenser (Labcyte) in a 20-point dose response format in triplicate for 30 min. Cells were the lysed and detection reagents added according to the manufacturer's protocol. After overnight incubation, luminescence was measured using a Perkin Elmer Envision plate reader. Raw data was normalized to the maximum signal from GLP-1 or GIP (high) and DMSO (low). Dose response curves were analyzed using GraphPad Prism 9.0.

The target of assay [2] is T2, GLP-1 receptor (Homo sapiens, UniProt P43220). The experiment in a line: HitHunter cAMP assay, GLP-1 receptor. Conditions: for Emax: read-out: Emax GLP-1R.
T2 sequence (P43220 24-463): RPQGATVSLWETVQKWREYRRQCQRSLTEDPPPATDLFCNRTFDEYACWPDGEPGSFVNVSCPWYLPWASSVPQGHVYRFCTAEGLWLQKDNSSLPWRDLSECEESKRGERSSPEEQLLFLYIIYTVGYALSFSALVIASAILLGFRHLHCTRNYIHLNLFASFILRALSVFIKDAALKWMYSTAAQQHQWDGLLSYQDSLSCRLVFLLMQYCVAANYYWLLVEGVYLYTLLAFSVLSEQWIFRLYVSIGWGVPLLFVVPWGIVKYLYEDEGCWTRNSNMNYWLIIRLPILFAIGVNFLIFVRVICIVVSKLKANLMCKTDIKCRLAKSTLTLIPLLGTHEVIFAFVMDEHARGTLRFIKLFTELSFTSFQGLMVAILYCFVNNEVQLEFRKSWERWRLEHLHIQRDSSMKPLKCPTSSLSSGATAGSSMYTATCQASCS
Assay [3] concerns the target T2, GLP-1 receptor. Description: PathHunter β-arrestin assay, GLP-1 receptor. On the set-up: host or cells: PathHunter CHO-K1 GLP1R β-Arrestin Cell Line.
The target in assay [4] is T1, GIP receptor. The experiment in a line: PathHunter β-arrestin assay, GIP receptor. More on the design: host or cells: PathHunter CHO-K1 GIPR β-Arrestin Cell Line.
[5] abbreviates: CHO cells stably expressing GIP receptor, cAMP accumulation, 30 min, read-out: EC50 GIP-1R.
[6] abbreviates: CHO cells, cAMP, normalized to maximum signal from GIP (high) and DMSO (low).
Where [7] appears, read: CHO cells stably expressing human GLP-1 receptor, cAMP accumulation, 30 min, read-out: EC50 GLP-1R.
Setting [8] is: CHO cells, cAMP, normalized to maximum signal from GLP-1 (high) and DMSO (low).
The mark [9] stands for this setting: β-arrestin-2 recruitment, PathHunter CHO-K1 GLP1R β-Arrestin Cell Line, 90 min at 37° C., normalized to GLP-1, read-out: GLP-1R β Arrestin EC50.
The mark [10] stands for this setting: β-arrestin-2 recruitment, PathHunter CHO-K1 GIPR β-Arrestin Cell Line, 90 min at 37° C., normalized to GIP, read-out: GIPR β Arrestin EC50.

As a reminder, the EC50 is the concentration that produces a half-maximal response. A word on the Emax: it is the size of the effect at its maximum, as opposed to the concentration needed.

For `CC[C@H](C)[C@H](NC(=O)[C@H](CC(C)C)NC(=O)[C@H](Cc1c[nH]c2ccccc12)NC(=O)[C@H](CCC(N)=O)NC(=O)[C@@H](NC(=O)[C@H](Cc1ccccc1)NC(=O)[C@H](C)NC(=O)[C@H](CCCCNC(=O)COCCOCCNC(=O)COCCOCCNC(=O)CC[C@H](NC(=O)CCCCCCCCCCCCCCCCCCC(=O)O)C(=O)O)NC(=O)[C@H](CCC(N)=O)NC(=O)[C@H](C)NC(=O)[C@@H](NC(=O)[C@H](CCCCN)NC(=O)[C@H](CC(=O)O)NC(=O)[C@H](CC(C)C)NC(=O)C(C)(C)NC(=O)[C@@H](NC(=O)[C@H](CO)NC(=O)[C@H](Cc1ccc(O)cc1)NC(=O)[C@H](CC(=O)O)NC(=O)[C@H](CO)NC(=O)[C@@H](NC(=O)[C@H](Cc1ccccc1)NC(=O)[C@@H](NC(=O)CNC(=O)[C@H](CCC(=O)O)NC(=O)CCNC(=O)C(C)(C)c1ccccc1)[C@@H](C)O)[C@@H](C)O)[C@@H](C)CC)[C@@H](C)CC)C(C)C)C(=O)N[C@@H](C)C(=O)NCC(=O)NCC(=O)N1CCC[C@H]1C(=O)N[C@@H](CO)C(=O)N[C@@H](CO)C(=O)NCC(=O)N[C@@H](C)C(=O)N1CCC[C@H]1C(=O)N1CCC[C@H]1C(=O)N1CCC[C@H]1C(=O)N[C@@H](CO)C(N)=O` [Compound 241] ({X6-βAla}-EGTFTSDYSI[Aib]LDKIAQK([AEEA-AEEA-γGlu-C20 diacid])AFVQWLIAGGPSSGAPPPS-NH2), the EC50 on GIP receptor [1] (setting [5]) was 1 to 10 nM; on GLP-1 receptor [2] (setting [7]), 0.1 to 1 nM; on GLP-1 receptor [3] (setting [9]), less than 1000 nM; at GIP receptor [4] (setting [10]), less than 1000 nM. The maximal response (Emax) amounted to 100% at GIP receptor [1] (setting [6]) and 95% at GLP-1 receptor [2] (setting [8]).
On to `CC[C@H](C)[C@H](NC(=O)[C@H](CC(C)C)NC(=O)[C@H](Cc1c[nH]c2ccccc12)NC(=O)[C@H](CCC(N)=O)NC(=O)[C@@H](NC(=O)[C@H](Cc1ccccc1)NC(=O)[C@H](C)NC(=O)[C@H](CCCCNC(=O)COCCOCCNC(=O)COCCOCCNC(=O)CC[C@H](NC(=O)CCCCCCCCCCCCCCCCCCC(=O)O)C(=O)O)NC(=O)[C@H](CCC(N)=O)NC(=O)[C@H](C)NC(=O)[C@@H](NC(=O)[C@H](CCCCN)NC(=O)[C@H](CC(=O)O)NC(=O)[C@H](CC(C)C)NC(=O)C(C)(C)NC(=O)[C@@H](NC(=O)[C@H](CO)NC(=O)[C@H](Cc1ccc(O)cc1)NC(=O)[C@H](CC(=O)O)NC(=O)[C@H](CO)NC(=O)[C@@H](NC(=O)[C@](C)(Cc1ccccc1F)NC(=O)[C@@H](NC(=O)CNC(=O)[C@H](CCC(=O)O)NC(=O)CCNC(=O)C(C)(C)c1cc(F)cc(C#N)c1)[C@@H](C)O)[C@@H](C)O)[C@@H](C)CC)[C@@H](C)CC)C(C)C)C(=O)N[C@@H](C)C(=O)NCC(=O)NCC(=O)N1CCC[C@H]1C(=O)N[C@@H](CO)C(=O)N[C@@H](CO)C(=O)NCC(=O)N[C@@H](C)C(=O)N1CCC[C@H]1C(=O)N1CCC[C@H]1C(=O)N1CCC[C@H]1C(=O)N[C@@H](CO)C(N)=O` [Compound 245] ({Isobutyryl(2-(3-CN-5-F-Ph))-βAla}-EGT[αMePhe(2-F)]TSDYSI[Aib]LDKIAQK([AEEA-AEEA-γGlu-C20 diacid])AFVQWLIAGGPSSGAPPPS-NH2), for which the EC50 at GIP receptor [1] (setting [5]) is 0.1 to 1 nM; at GLP-1 receptor [2] (setting [7]), 0.1 to 1 nM; on GLP-1 receptor [3] (setting [9]), more than 1000 nM; at GIP receptor [4] (setting [10]), less than 1000 nM. Moreover, the Emax on GIP receptor [1] (setting [6]) was 90%; on GLP-1 receptor [2] (setting [8]), 122%.
As to `CC[C@H](C)[C@H](NC(=O)[C@H](CC(C)C)NC(=O)[C@H](Cc1c[nH]c2ccccc12)NC(=O)[C@H](CCC(N)=O)NC(=O)[C@@H](NC(=O)[C@H](Cc1ccccc1)NC(=O)[C@H](C)NC(=O)[C@H](CCCCNC(=O)COCCOCCNC(=O)COCCOCCNC(=O)CC[C@H](NC(=O)CCCCCCCCCCCCCCCCCCC(=O)O)C(=O)O)NC(=O)[C@H](CCC(N)=O)NC(=O)[C@H](C)NC(=O)[C@@H](NC(=O)[C@H](CCCCN)NC(=O)[C@H](CC(=O)O)NC(=O)[C@H](CC(C)C)NC(=O)C(C)(C)NC(=O)[C@@H](NC(=O)[C@H](CO)NC(=O)[C@H](Cc1ccc(O)cc1)NC(=O)[C@H](CC(=O)O)NC(=O)[C@H](CO)NC(=O)[C@@H](NC(=O)[C@](C)(Cc1ccccc1F)NC(=O)[C@@H](NC(=O)CNC(=O)[C@H](CCC(=O)O)NC(=O)CCNC(=O)C1(c2cccnc2)CCCC1)[C@@H](C)O)[C@@H](C)O)[C@@H](C)CC)[C@@H](C)CC)C(C)C)C(=O)N[C@@H](C)C(=O)NCC(=O)NCC(=O)N1CCC[C@H]1C(=O)N[C@@H](CO)C(=O)N[C@@H](CO)C(=O)NCC(=O)N[C@@H](C)C(=O)N1CCC[C@H]1C(=O)N1CCC[C@H]1C(=O)N1CCC[C@H]1C(=O)N[C@@H](CO)C(N)=O` [Compound 246] ({X60-βAla}-EGT[αMePhe(2-F)]TSDYSI[Aib]LDKIAQK([AEEA-AEEA-γGlu-C20 diacid])AFVQWLIAGGPSSGAPPPS-NH2), the EC50 at GIP receptor [1] (setting [5]) is 0.1 to 1 nM; at GLP-1 receptor [2] (setting [7]), 0.1 to 1 nM; at GLP-1 receptor [3] (setting [9]), less than 1000 nM; at GIP receptor [4] (setting [10]) it was less than 1000 nM. Moreover, the values for the maximal effect (Emax) on GIP receptor [1] (setting [6]) and at GLP-1 receptor [2] (setting [8]) were 100% and 130%, respectively.
As to `CC[C@H](C)[C@H](NC(=O)[C@H](CC(C)C)NC(=O)[C@H](Cc1c[nH]c2ccccc12)NC(=O)[C@H](CCC(N)=O)NC(=O)[C@@H](NC(=O)[C@H](Cc1ccccc1)NC(=O)[C@H](C)NC(=O)[C@H](CCCCNC(=O)COCCOCCNC(=O)COCCOCCNC(=O)CC[C@H](NC(=O)CCCCCCCCCCCCCCCCCCC(=O)O)C(=O)O)NC(=O)[C@H](CCC(N)=O)NC(=O)[C@H](C)NC(=O)[C@@H](NC(=O)[C@H](CCCCN)NC(=O)[C@H](CC(=O)O)NC(=O)[C@H](CC(C)C)NC(=O)C(C)(C)NC(=O)[C@@H](NC(=O)[C@H](CO)NC(=O)[C@H](Cc1ccc(O)cc1)NC(=O)[C@H](CC(=O)O)NC(=O)[C@H](CO)NC(=O)[C@@H](NC(=O)[C@H](Cc1ccccc1)NC(=O)[C@@H](NC(=O)CNC(=O)[C@H](CCC(=O)O)NC(=O)CCCNC(=O)CNC(=O)Nc1cccc(C(F)(F)F)c1)[C@@H](C)O)[C@@H](C)O)[C@@H](C)CC)[C@@H](C)CC)C(C)C)C(=O)N[C@@H](C)C(=O)NCC(=O)NCC(=O)N1CCC[C@H]1C(=O)N[C@@H](CO)C(=O)N[C@@H](CO)C(=O)NCC(=O)N[C@@H](C)C(=O)N1CCC[C@H]1C(=O)N1CCC[C@H]1C(=O)N1CCC[C@H]1C(=O)N[C@@H](CO)C(N)=O` [Compound 263] ({X16-CO}-G[GABA]EGTFTSDYSI[Aib]LDKIAQK([AEEA-AEEA-γGlu-C20 diacid])AFVQWLIAGGPSSGAPPPS-NH2), the EC50 was 1 to 10 nM at GIP receptor [1], 1 to 10 nM on GLP-1 receptor [2], more than 1000 nM on GLP-1 receptor [3] and more than 1000 nM at GIP receptor [4]. Also, the Emax was 104% at GIP receptor [1] (CHO) and 98% at GLP-1 receptor [2] (CHO).
In the case of `CC[C@H](C)[C@H](NC(=O)[C@H](CC(C)C)NC(=O)[C@H](Cc1c[nH]c2ccccc12)NC(=O)[C@H](CCC(N)=O)NC(=O)[C@@H](NC(=O)[C@H](Cc1ccccc1)NC(=O)[C@H](C)NC(=O)[C@H](CCCCNC(=O)COCCOCCNC(=O)COCCOCCNC(=O)CC[C@H](NC(=O)CCCCCCCCCCCCCCCCCCC(=O)O)C(=O)O)NC(=O)[C@H](CCC(N)=O)NC(=O)[C@H](C)NC(=O)[C@@H](NC(=O)[C@H](CCCCN)NC(=O)[C@H](CC(=O)O)NC(=O)[C@H](CC(C)C)NC(=O)C(C)(C)NC(=O)[C@@H](NC(=O)[C@H](CO)NC(=O)[C@H](Cc1ccc(O)cc1)NC(=O)[C@H](CC(=O)O)NC(=O)[C@H](CO)NC(=O)[C@@H](NC(=O)[C@H](Cc1ccccc1)NC(=O)[C@@H](NC(=O)CNC(=O)[C@H](CCC(=O)O)NC(=O)CCCNC(=O)CNC(=O)Nc1ccc(F)c(F)c1)[C@@H](C)O)[C@@H](C)O)[C@@H](C)CC)[C@@H](C)CC)C(C)C)C(=O)N[C@@H](C)C(=O)NCC(=O)NCC(=O)N1CCC[C@H]1C(=O)N[C@@H](CO)C(=O)N[C@@H](CO)C(=O)NCC(=O)N[C@@H](C)C(=O)N1CCC[C@H]1C(=O)N1CCC[C@H]1C(=O)N1CCC[C@H]1C(=O)N[C@@H](CO)C(N)=O` [Compound 264] ({X63-CO}-G[GABA]EGTFTSDYSI[Aib]LDKIAQK([AEEA-AEEA-γGlu-C20 diacid])AFVQWLIAGGPSSGAPPPS-NH2), the 50% effective concentration (EC50) on GIP receptor [1] (setting [5]) was 1 to 10 nM; at GLP-1 receptor [2] (setting [7]) it was 1 to 10 nM; at GLP-1 receptor [3] (setting [9]), more than 1000 nM; at GIP receptor [4] (setting [10]), less than 1000 nM. Besides, the maximum response (Emax) at GIP receptor [1] (setting [6]) came out at 106%; at GLP-1 receptor [2] (setting [8]) it was 97%.
